Data taken from patent US8178552B2, “7-Azaindole derivatives and their use in the inhibition of c-Jun N-terminal kinase” (Eisai R&D Management Co., Ltd., priority 2008, dated 2012).

Target: JNK3 (Homo sapiens, UniProt P53779)
Assay: JNK3 SPA assay
Assay type: biochemical
Conditions: 3.33 μM ATP, GST-c-Jun substrate; read-out: IC50 against JNK3
Description: JNK1, JNK2, JNK3—SPA Assay
JNK1, JNK2, JNK3—SPA Assay • 1. Compound is dissolved in DMSO to a convenient concentration and this is diluted in 10% DMSO to a five times concentrate of the desired starting concentration (frequently 1:100). • 2. 10 μl of 500 mM EDTA is added to alternative wells of the Opti-plate row, which will receive kinase reaction plus DMSO. This creates the negative control. • 3. For the JNK2 and JNK3 assay, compounds are prepared in six 2-fold dilutions with water and each concentration is tested in duplicate. For the JNK1 assay compounds are prepared in four 5-fold dilutions with water which are tested in triplicate. Controls are treated identically. • 4. 20 μl per well of each compound concentration is transferred to an Opti-plate, in duplicate. • 5. 30 μl (JNK2/3 SPA) or 50 μl (JNK1 SPA) of substrate solution (25 mM HEPES pH 7.5, 10 mM magnesium acetate with 3.33 μM ATP (JNK2/3) or 2 μM ATP (JNK1), approximately 7.5 kBq [γ-^33P] ATP, GST-c-Jun, in water) is added to each well. • 6. 50 μl (JNK2/3 SPA) or 30 μl (JNK1 SPA) of kinase solution (JNK in 25 mM HEPES pH 7.5, 10 mM Mg Acetate) is added to each well.
• 7. The plate is incubated for 30 minutes at room temperature. • 8. 100 μl of bead/stop solution is added to each well (5 mg/ml glutathione-PVT-SPA beads, 40 mM ATP in PBS). • 9. Plates are sealed and incubated for 30 minutes at room temperature, centrifuged for 10 minutes at 2500 g and counted. • 10. The IC50 values are calculated as the concentration of the compound being tested at which the phosphorylation of c-Jun is decreased to 50% of the control value.

Chain of JNK3 (P53779 whole entry, species assumed): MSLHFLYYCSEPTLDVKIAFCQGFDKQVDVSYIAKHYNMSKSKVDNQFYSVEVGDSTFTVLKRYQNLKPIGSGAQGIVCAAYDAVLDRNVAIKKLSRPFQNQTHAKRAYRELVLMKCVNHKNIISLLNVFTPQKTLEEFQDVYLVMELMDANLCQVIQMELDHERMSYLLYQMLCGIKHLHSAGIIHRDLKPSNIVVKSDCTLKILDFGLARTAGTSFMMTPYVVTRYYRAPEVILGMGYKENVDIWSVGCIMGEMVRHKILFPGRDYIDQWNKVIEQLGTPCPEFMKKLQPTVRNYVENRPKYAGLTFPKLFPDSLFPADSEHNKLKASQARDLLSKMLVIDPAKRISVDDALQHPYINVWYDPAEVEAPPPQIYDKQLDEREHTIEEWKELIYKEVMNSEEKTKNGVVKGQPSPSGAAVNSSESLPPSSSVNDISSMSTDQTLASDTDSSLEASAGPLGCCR

Row | IC50 [nM] | SMILES
1 | 224 | CCCN(CC)[C@H]1CC[C@@H](c2cnc3[nH]cc(-c4cnn(C)c4)c3c2)CC1 [Compound I-114, (1s,4s)-N-ethyl-4-(3-(1-methyl-1H-pyrazol-4-yl)-1H-pyrrolo[2,3-b]pyridin-5-yl)-N-propylcyclohexanamine]
2 | 191 | Cn1cc(-c2c[nH]c3ncc(C4=CC5(CC4)OCCO5)cc23)cn1 [Compound I-51, 3-(1-methyl-1H-pyrazol-4-yl)-5-(1,4-dioxaspiro[4.4]non-6-en-7-yl)-1H-pyrrolo[2,3-b]pyridine]
3 | 229 | Cn1cc(-c2c[nH]c3ncc(C4CCC(=O)CC4)cc23)cn1 [Compound I-20, 4-[3-(1-Methyl-1H-pyrazol-4-yl)-1H-pyrrolo[2,3-b]pyridin-5-yl]-cyclohexanone]
4 | 339 | FC(F)n1cc(-c2c[nH]c3ncc(C4=CCC(N5CCOCC5)CC4)cc23)cn1 (stereo not shown) [Compound I-5, 3-(1-Difluoromethyl-1H-pyrazol-4-yl)-5-(4-morpholin-4-yl-cyclohex-1-enyl)-1H-pyrrolo[2,3-b]pyridine]
5 | 1480 | CO[C@]1(c2cnc3[nH]cc(-c4cnn(C)c4)c3c2)CC[C@H](N2CCOCC2)CC1 [Compound I-163, 4-((1s,4s)-4-methoxy-4-(3-(1-methyl-1H-pyrazol-4-yl)-1H-pyrrolo[2,3-b]pyridin-5-yl)cyclohexyl)morpholine]
6 | 224 | Cn1cc(-c2c[nH]c3ncc(C4=CCC5(CC4)OCCO5)cc23)cn1 [Compound I-14, 5-(1,4-Dioxa-spiro[4.5]dec-7-en-8-yl)-3-(1-methyl-1H-pyrazol-4-yl)-1H-pyrrolo[2,3-b]pyridine]
7 | 281 | CCCN(CCO)[C@H]1CC[C@@H](c2cnc3[nH]cc(-c4cnn(C)c4)c3c2)CC1 [Compound I-126, 2-(((1s,4s)-4-(3-(1-methyl-1H-pyrazol-4-yl)-1H-pyrrolo[2,3-b]pyridin-5-yl)cyclohexyl)(propyl)amino)ethanol]
8 | 302 | CCN(C)[C@H]1CC[C@H](c2cnc3[nH]cc(-c4cnn(C)c4)c3c2)CC1 [Compound I-109, (1r,4r)-N-ethyl-N-methyl-4-(3-(1-methyl-1H-pyrazol-4-yl)-1H-pyrrolo[2,3-b]pyridin-5-yl)cyclohexanamine]
9 | 468 | COC1(c2cnc3[nH]cc(-c4cnn(C)c4)c3c2)CCCC1 [Compound I-63, 5-(1-methoxycyclopentyl)-3-(1-methyl-1H-pyrazol-4-yl)-1H-pyrrolo[2,3-b]pyridine]
10 | > 500 | c1nn(CCN2CCOCC2)cc1-c1c[nH]c2ncc([C@H]3CC[C@@H](N4CCOCC4)CC3)cc12 [Compound I-58, 4-(2-(4-(5-((1s,4s)-4-morpholinocyclohexyl)-1H-pyrrolo[2,3-b]pyridin-3-yl)-1H-pyrazol-1-yl)ethyl)morpholine]
11 | > 500 | CN(C)[C@H]1CC[C@H](c2cnc3[nH]cc(-c4cnn(CCN5CCOCC5)c4)c3c2)CC1 [Compound I-60, (1r,4r)-N,N-dimethyl-4-(3-(1-(2-morpholinoethyl)-1H-pyrazol-4-yl)-1H-pyrrolo[2,3-b]pyridin-5-yl)cyclohexanamine]
12 | 71 | CN(C)C1CCC(c2cnc3[nH]cc(-c4cnn(CCN5CCOCC5)c4)c3c2)CC1 (mixture of isomers) [Compound I-56, N,N-dimethyl-4-(3-(1-(2-morpholinoethyl)-1H-pyrazol-4-yl)-1H-pyrrolo[2,3-b]pyridin-5-yl)cyclohexanamine]
13 | 93 | Cn1cc(-c2c[nH]c3ncc([C@H]4CC[C@H](N5CCC(F)(F)C5)CC4)cc23)cn1 [Compound I-47, 5-((1r,4r)-4-(3,3-difluoropyrrolidin-1-yl)cyclohexyl)-3-(1-methyl-1H-pyrazol-4-yl)-1H-pyrrolo[2,3-b]pyridine]
14 | 263 | CCCN(CCO)[C@H]1CC[C@H](c2cnc3[nH]cc(-c4cnn(C)c4)c3c2)CC1 [Compound I-125, 2-(((1r,4r)-4-(3-(1-methyl-1H-pyrazol-4-yl)-1H-pyrrolo[2,3-b]pyridin-5-yl)cyclohexyl)(propyl)amino)ethanol]
15 | 117 | c1n[nH]cc1-c1c[nH]c2ncc([C@H]3CC[C@H](N4CCOCC4)CC3)cc12 [Compound I-79, 4-((1r,4r)-4-(3-(1H-pyrazol-4-yl)-1H-pyrrolo[2,3-b]pyridin-5-yl)cyclohexyl)morpholine]
16 | 417 | c1nn(CCN2CCOCC2)cc1-c1c[nH]c2ncc([C@H]3CC[C@H](N4CCOCC4)CC3)cc12 [Compound I-57, 4-(2-(4-(5-((1r,4r)-4-morpholinocyclohexyl)-1H-pyrrolo[2,3-b]pyridin-3-yl)-1H-pyrazol-1-yl)ethyl)morpholine]

Row | IC50 [nM] | SMILES
17 | 123 | Cn1cc(-c2c[nH]c3ncc(C4CCC(C(C)(C)C)CC4)cc23)cn1 (mixture of isomers) [Compound I-4, 5-(4-tert-butylcyclohexyl)-3-(1-methyl-1H-pyrazol-4-yl)-1H-pyrrolo[2,3-b]pyridine]
18 | 138 | Cn1cc(-c2c[nH]c3ncc(C4CCC(F)(F)CC4)cc23)cn1 [Compound I-42, 5-(4,4-difluorocyclohexyl)-3-(1-methyl-1H-pyrazol-4-yl)-1H-pyrrolo[2,3-b]pyridine]
19 | 98 | CN1CCCN([C@H]2CC[C@@H](c3cnc4[nH]cc(-c5cnn(C)c5)c4c3)CC2)CC1 [Compound I-38, 5-((1s,4s)-4-(4-methyl-1,4-diazepan-1-yl)cyclohexyl)-3-(1-methyl-1H-pyrazol-4-yl)-1H-pyrrolo[2,3-b]pyridine]
20 | 1510 | Cc1c(-c2c[nH]c3ncc([C@H]4CC[C@H](N5CCOCC5)CC4)cc23)cnn1C [Compound I-95, 4-((1r,4r)-4-(3-(1,5-dimethyl-1H-pyrazol-4-yl)-1H-pyrrolo[2,3-b]pyridin-5-yl)cyclohexyl)morpholine]
21 | 74 | Cn1cc(-c2c[nH]c3ncc(C4CCC(CN5CCOCC5)CC4)cc23)cn1 (mixture of isomers) [Compound I-73, 3-(1-Methyl-1H-pyrazol-4-yl)-5-(4-morpholin-4-ylmethyl-cyclohexyl)-1H-pyrrolo[2,3-b]pyridine]
22 | 295 | CCCN(CCOC)[C@H]1CC[C@@H](c2cnc3[nH]cc(-c4cnn(C)c4)c3c2)CC1 [Compound I-122, (1s,4s)-N-(2-methoxyethyl)-4-(3-(1-methyl-1H-pyrazol-4-yl)-1H-pyrrolo[2,3-b]pyridin-5-yl)-N-propylcyclohexanamine]
23 | 398 | Cn1cc(-c2c[nH]c3ncc([C@H]4CC[C@H](NC5CCOCC5)CC4)cc23)cn1 [Compound I-127, N-((1 r,4r)-4-(3-(1-methyl-1H-pyrazol-4-yl)-1H-pyrrolo[2,3-b]pyridin-5-yl)cyclohexyl)tetrahydro-2H-pyran-4-amine]
24 | 2140 | Cn1cc(-c2c[nH]c3ncc(C4CC(C)(C)CC(C)(C)C4)cc23)cn1 [Compound I-34, 3-(1-methyl-1H-pyrazol-4-yl)-5-(3,3,5,5-tetramethylcyclohexyl)-1H-pyrrolo[2,3-b]pyridine]
25 | > 1000 | Cn1cc(-c2c[nH]c3ncc(C4=CC5CC(O)CC(C4)C5)cc23)cn1 (stereo not shown) [Compound I-147, 7-(3-(1-methyl-1H-pyrazol-4-yl)-1H-pyrrolo[2,3-b]pyridin-5-yl)bicyclo[3.3.1]non-6-en-3-ol]
26 | 832 | Cn1cc(-c2c[nH]c3ncc(C4=CC5CC(O)CC(C4)C5)cc23)cn1 (stereo not shown) [Compound I-146, 7-(3-(1-methyl-1H-pyrazol-4-yl)-1H-pyrrolo[2,3-b]pyridin-5-yl)bicyclo[3.3.1]non-6-en-3-ol]
27 | > 500 | CN1CCN(C2CC3C=C(c4cnc5[nH]cc(-c6cnn(C)c6)c5c4)CC(C3)C2)CC1 (stereo not drawn) [Compound I-149, trans-3-(1-methyl-1H-pyrazol-4-yl)-5-(7-(4-methylpiperazin-1-yl)bicyclo[3.3.1]non-2-en-3-yl)-1H-pyrrolo[2,3-b]pyridine]
28 | 288 | CCOCCN(CC)[C@H]1CC[C@H](c2cnc3[nH]cc(-c4cnn(C)c4)c3c2)CC1 [Compound I-107, (1r,4r)-N-(2-ethoxyethyl)-N-ethyl-4-(3-(1-methyl-1H-pyrazol-4-yl)-1H-pyrrolo[2,3-b]pyridin-5-yl)cyclohexanamine]
29 | 155 | Cn1cc(-c2c[nH]c3ncc(C4CCCC5C4C5(C)C)cc23)cn1 (stereo not shown) [Compound I-142, 5-(7,7-dimethylbicyclo[4.1.0]heptan-2-yl)-3-(1-methyl-1H-pyrazol-4-yl)-1H-pyrrolo[2,3-b]pyridine]
30 | 347 | CCCN(C)[C@H]1CC[C@H](c2cnc3[nH]cc(-c4cnn(C)c4)c3c2)CC1 [Compound I-115, (1r,4r)-N-methyl-4-(3-(1-methyl-1H-pyrazol-4-yl)-1H-pyrrolo[2,3-b]pyridin-5-yl)-N-propylcyclohexanamine]
31 | 148 | Cn1cc(-c2c[nH]c3ncc(C4=CC5CC[C@]4(C)C5(C)C)cc23)cn1 [Compound I-138, 3-(1-methyl-1H-pyrazol-4-yl)-5-((1R)-1,7,7-trimethylbicyclo[2.2.1]hept-2-en-2-yl)-1H-pyrrolo[2,3-b]pyridine]
